Several values for one entry are separate records, joined by “and”; a condition that tells them apart may be missing. Identical values can stand only once. Inconclusive results and toxic doses are left out. No stated cut-off is given here; in the data, active means T/C of 150% or more; inactive means T/C below 125%.
Tested on: L1210 leukemia ip in BDF1 mice, survival T/C
Test: NCI In Vivo Anticancer Drug Screen. Data for tumor model L1210 Leukemia (intraperitoneal) in B6D2F1 (BDF1) mice
Settings: endpoint: mean survival time, higher = longer survival
Outline: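 Tumor cells were implanted, animals were treated, and survival was followed. The result divides the treated measurement by the vehicle-control measurement.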

[1] = dose: 50.0 mg/kg/injection, schedule: Q01DX009 (ip), vehicle: saline with Tween-80
[2] = dose: 100.0 mg/kg/injection, schedule: Q01DX009 (ip), vehicle: saline with Tween-80
[3] = dose: 100.0 mg/kg/injection, schedule: Q04DX003 (ip), vehicle: saline with Tween-80
[4] = dose: 200.0 mg/kg/injection, schedule: Q04DX003 (ip), vehicle: saline with Tween-80
[5] = dose: 100.0 mg/kg/injection, schedule: Q01DX009 (ip), vehicle: Klucel (hydroxypropylcellulose) (HPC)
[6] = dose: 200.0 mg/kg/injection, schedule: Q01DX009 (ip), vehicle: Klucel (hydroxypropylcellulose) (HPC)
[7] = dose: 400.0 mg/kg/injection, schedule: Q01DX009 (ip), vehicle: Klucel (hydroxypropylcellulose) (HPC)
[8] = dose: 100.0 mg/kg/injection, schedule: Q04DX002 (ip), vehicle: saline with Tween-80
[9] = dose: 200.0 mg/kg/injection, schedule: Q04DX002 (ip), vehicle: saline with Tween-80
[10] = dose: 200.0 mg/kg/injection, schedule: Q01DX009 (ip), vehicle: saline with Tween-80
[11] = dose: 400.0 mg/kg/injection, schedule: Q01DX009 (ip), vehicle: saline with Tween-80
[12] = dose: 100.0 mg/kg/injection, schedule: Q01DX001 (ip), vehicle: carboxymethylcellulose (CMC)
[13] = dose: 200.0 mg/kg/injection, schedule: Q01DX001 (ip), vehicle: carboxymethylcellulose (CMC)
[14] = dose: 400.0 mg/kg/injection, schedule: Q01DX001 (ip), vehicle: carboxymethylcellulose (CMC)
[15] = dose: 50.0 mg/kg/injection, schedule: Q04DX003 (ip), vehicle: Klucel (hydroxypropylcellulose) (HPC)
[16] = dose: 100.0 mg/kg/injection, schedule: Q01DX001 (ip), vehicle: Klucel (hydroxypropylcellulose) (HPC)
[17] = dose: 100.0 mg/kg/injection, schedule: Q04DX003 (ip), vehicle: Klucel (hydroxypropylcellulose) (HPC)
[18] = dose: 400.0 mg/kg/injection, schedule: Q04DX003 (ip), vehicle: saline with Tween-80
[19] = dose: 100.0 mg/kg/injection, schedule: Q01DX001 (ip), vehicle: saline
[20] = dose: 200.0 mg/kg/injection, schedule: Q01DX001 (ip), vehicle: saline
[21] = dose: 50.0 mg/kg/injection, schedule: Q01DX009 (ip), vehicle: Klucel (hydroxypropylcellulose) (HPC)
[22] = dose: 200.0 mg/kg/injection, schedule: Q04DX003 (ip), vehicle: Klucel (hydroxypropylcellulose) (HPC)
[23] = dose: 400.0 mg/kg/injection, schedule: Q04DX003 (ip), vehicle: Klucel (hydroxypropylcellulose) (HPC)
[24] = dose: 25.0 mg/kg/injection, schedule: Q04DX003 (ip), vehicle: Klucel (hydroxypropylcellulose) (HPC)

Measured: T/C

CCCC(C)CN (stereo unspecified)
inactive: [1] 100 % of control | [2] 104 % of control | [3] 100 % of control | [4] 98 % of control

Cc1cc(C)c(NS(=O)(=O)c2ccc(Cl)cc2)cc1C
inactive: [5] 108 % of control | [6] 106 % of control | [7] 100 % of control

Cc1cccc(NC(=S)NCCc2ccccn2)c1
inactive: [8] 97 % of control | [9] 97 % of control

COc1ccc(OC)c(/C=N/NC(=O)CCCCCCCCC(=O)N/N=C/c2cc(OC)ccc2OC)c1
inactive: dose: 100.0 mg/kg/injection, schedule: Q01DX001 (ip), vehicle: saline with Tween-80 90 % of control | [2] 101 % of control and 106 % of control | [8] 94 % of control and 108 % of control | dose: 100.0 mg/kg/injection, schedule: Q04DX003 (ip), vehicle: saline 92 % of control | dose: 200.0 mg/kg/injection, schedule: Q01DX001 (ip), vehicle: saline with Tween-80 92 % of control | [10] 97 % of control and 90 % of control | [9] 95 % of control and 90 % of control | dose: 200.0 mg/kg/injection, schedule: Q04DX003 (ip), vehicle: saline 92 % of control | dose: 400.0 mg/kg/injection, schedule: Q01DX001 (ip), vehicle: saline with Tween-80 87 % of control | [11] 94 % of control | dose: 400.0 mg/kg/injection, schedule: Q04DX002 (ip), vehicle: saline with Tween-80 86 % of control | dose: 400.0 mg/kg/injection, schedule: Q04DX003 (ip), vehicle: saline 87 % of control

COc1cc(-c2ccccc2)c([N+](=O)[O-])cc1[N+](=O)[O-]
inactive: [12] 107 % of control | [13] 110 % of control | [14] 116 % of control

CCN(C)c1cc2c3c(c1)CCCN3CCC2
inactive: dose: 5.0 mg/kg/injection, schedule: Q01DX009 (ip), vehicle: saline 103 % of control

c1coc(CNCNCc2ccco2)c1
inactive: dose: 155.0 mg/kg/injection, schedule: Q01DX Z (ip), vehicle: methylcellulose (MC) 94 % of control | dose: 233.0 mg/kg/injection, schedule: Q01DX Z (ip), vehicle: methylcellulose (MC) 105 % of control | dose: 350.0 mg/kg/injection, schedule: Q01DX Z (ip), vehicle: methylcellulose (MC) 100 % of control

CC(C)(C)C1CCC(NC2=NCCO2)CC1 (stereo unspecified)
inactive: dose: 25.0 mg/kg/injection, schedule: Q01DX001 (ip), vehicle: Klucel (hydroxypropylcellulose) (HPC) 103 % of control | dose: 50.0 mg/kg/injection, schedule: Q01DX001 (ip), vehicle: Klucel (hydroxypropylcellulose) (HPC) 104 % of control | [15] 96 % of control | [16] 93 % of control and 100 % of control | [17] 102 % of control

CCCCCCCC[Se](=O)O
inactive: dose: 5.0 mg/kg/injection, schedule: Q01DX001 (ip), vehicle: carboxymethylcellulose (CMC) 95 % of control | dose: 10.0 mg/kg/injection, schedule: Q01DX001 (ip), vehicle: carboxymethylcellulose (CMC) 109 % of control | dose: 20.0 mg/kg/injection, schedule: Q01DX001 (ip), vehicle: carboxymethylcellulose (CMC) 109 % of control

CC(C)CCNC(=O)CS(=O)(=O)c1ccc(N)cc1
inactive: [3] 98 % of control | [4] 98 % of control | [18] 96 % of control

Cc1ccc([N+](=O)[O-])cc1NC(=O)OCC1CCCO1 (stereo unspecified)
inactive: dose: 100.0 mg/kg/injection, schedule: Q04DX002 (ip), vehicle: Klucel (hydroxypropylcellulose) (HPC) 87 % of control | dose: 200.0 mg/kg/injection, schedule: Q04DX002 (ip), vehicle: Klucel (hydroxypropylcellulose) (HPC) 87 % of control | dose: 400.0 mg/kg/injection, schedule: Q04DX002 (ip), vehicle: Klucel (hydroxypropylcellulose) (HPC) 97 % of control

c1ccc(Cn2cnc3c2nnn2ncnc32)cc1
inactive: [12] 106 % of control | [13] 102 % of control | [14] 114 % of control

O=C(O)C1Nc2ccccc2NC1=O (stereo unspecified)
inactive: [16] 100 % of control | dose: 200.0 mg/kg/injection, schedule: Q01DX001 (ip), vehicle: Klucel (hydroxypropylcellulose) (HPC) 94 % of control | dose: 400.0 mg/kg/injection, schedule: Q01DX001 (ip), vehicle: Klucel (hydroxypropylcellulose) (HPC) 106 % of control

CC12CCCC(C(C#N)C(N)=O)(C1)NC(=O)C2C#N (stereo unspecified)
inactive: [19] 107 % of control | [20] 96 % of control

CCCCC#C/C=C/CCCC
inactive: [1] 95 % of control | [2] 100 % of control | [10] 100 % of control

C/C(=N\Nc1nc2ccccc2o1)c1ccncc1
inactive: [21] 105 % of control | [5] 105 % of control | [6] 116 % of control | [7] 108 % of control

Clc1cc(Cl)c2nc(Cl)c3ccccc3c2c1
inactive: [5] 100 % of control | [17] 95 % of control | [6] 92 % of control | [22] 90 % of control | [7] 100 % of control | [23] 93 % of control

COC(OC)c1[nH]c(=S)[nH]c(=O)c1Cc1ccc(-c2ccccc2)cc1
inactive: [3] 101 % of control | [4] 100 % of control | [18] 95 % of control

CN(C)C(=O)C1(c2ccc(Cl)cc2)CCN(CCCC(=O)c2ccc(F)cc2)CC1
inactive: dose: 12.5 mg/kg/injection, schedule: Q01DX009 (ip), vehicle: Klucel (hydroxypropylcellulose) (HPC) 94 % of control | dose: 25.0 mg/kg/injection, schedule: Q01DX009 (ip), vehicle: Klucel (hydroxypropylcellulose) (HPC) 94 % of control | [24] 121 % of control | [21] 100 % of control | [15] 106 % of control | [5] 111 % of control | [17] 116 % of control | [6] 96 % of control | [22] 116 % of control

N#Cc1ncc(C(Cl)(Cl)Cl)nc1Cl
inactive: dose: 25.0 mg/kg/injection, schedule: Q01DX009 (ip), vehicle: saline with Tween-80 103 % of control | dose: 25.0 mg/kg/injection, schedule: Q04DX003 (ip), vehicle: saline with Tween-80 100 % of control | [1] 105 % of control | dose: 50.0 mg/kg/injection, schedule: Q04DX003 (ip), vehicle: saline with Tween-80 100 % of control | [2] 105 % of control and 108 % of control | [3] 106 % of control | [10] 103 % of control | [11] 110 % of control

Cc1ccc2c(n1)Nc1ncnc(N)c1S2
inactive: dose: 12.5 mg/kg/injection, schedule: Q04DX003 (ip), vehicle: Klucel (hydroxypropylcellulose) (HPC) 96 % of control | [24] 108 % of control

CN=C(c1ccc(NC(=O)c2ccc(C(=O)Nc3ccc(C(=NC)N(C)C)cc3)c(Cl)c2)cc1)N(C)C
inactive: dose: 0.94 mg/kg/injection, schedule: Q01DX Z (ip), vehicle: saline 98 % of control | dose: 1.88 mg/kg/injection, schedule: Q01DX Z (ip), vehicle: saline 87 % of control

CCOC(=O)C(C)Nc1ccccc1 (stereo unspecified)
inactive: [5] 100 % of control | [17] 103 % of control | [6] 104 % of control | [22] 118 % of control | [7] 98 % of control | [23] 98 % of control

CC12CCC(O)CC1CCC1C2CCC2(C)C(C(=O)O)CCC12 (stereo unspecified)
inactive: dose: 100.0 mg/kg/injection, schedule: Q04DX002 (ip), vehicle: gum acacia 99 % of control | dose: 200.0 mg/kg/injection, schedule: Q04DX002 (ip), vehicle: gum acacia 86 % of control | dose: 400.0 mg/kg/injection, schedule: Q04DX002 (ip), vehicle: gum acacia 89 % of control

C=CCOC(=O)C(C)O (stereo unspecified)
inactive: dose: 50.0 mg/kg/injection, schedule: Q01DX009 (ip), vehicle: saline 98 % of control | [19] 105 % of control | dose: 100.0 mg/kg/injection, schedule: Q01DX009 (ip), vehicle: saline 98 % of control | [20] 105 % of control | dose: 200.0 mg/kg/injection, schedule: Q01DX009 (ip), vehicle: saline 98 % of control
